In brackets after ≈: the same amount, converted by molar mass. Activity calls are given as the source filed them. The calls are words filed in the database; no cut-off is given here.
Assays:
[1] = test system: Chromobacterium violaceum; assay: Inhibition of Quorum sensing system in Chromobacterium violaceum CV026 after 24 hrs by agar-well diffusion method
[2] = test system: Pseudomonas aeruginosa PAO1; assay: Inhibition of Quorum sensing system in Pseudomonas aeruginosa PAO1 assessed as inhibition of pyocyanin production at sub-MIC concentration after 16 to 18 hrs by spectrophotometric assay
[3] = test system: Chromobacterium violaceum; assay: Inhibition of Quorum sensing system in Chromobacterium violaceum CV026 at 1 to 4 mg/ml after 24 hrs by agar-well diffusion method
[4] = test system: Chromobacterium violaceum; assay: Inhibition of Quorum sensing system in Chromobacterium violaceum CV026 assessed as inhibition of violacein synthesis at 150 uM after 18 hrs by spectrophotometric assay
Pseudomonas aeruginosa [5] = assay: Decrease in rhII gene expression in Pseudomonas aeruginosa PAO1 at 400 uM by RT-PCR analysis; type: functional, organism-based
Pseudomonas aeruginosa [6] = assay: Antibacterial activity in Pseudomonas aeruginosa PAO1 for 16 hrs; type: functional; conditions: PAO1, 16 h
Pseudomonas aeruginosa [7] = assay: Decrease in lasR gene expression in Pseudomonas aeruginosa PAO1 at 400 uM by RT-PCR analysis; type: functional, organism-based
Pseudomonas aeruginosa [8] = assay: Decrease in rhIR gene expression in Pseudomonas aeruginosa PAO1 at 400 uM by RT-PCR analysis; type: functional, organism-based
Pseudomonas aeruginosa [9] = assay: Antibacterial activity in Pseudomonas aeruginosa PAO1 at 400 uM measured every 2 hrs for 24 hrs by microplate reader analysis; type: functional, organism-based
[10] = test system: Chromobacterium violaceum; assay: Antibacterial activity in Chromobacterium violaceum CV026 for 16 hrs; type: functional; conditions: CV026, 16 h
[11] = test system: Chromobacterium violaceum; assay: Inhibition of Quorum sensing system in Chromobacterium violaceum CV026 assessed as inhibition of violacein synthesis at 25 to 150 uM after 18 hrs by spectrophotometric assay
[12] = test system: Pseudomonas aeruginosa PAO1; assay: Inhibition of Quorum sensing system in Pseudomonas aeruginosa PAO1 assessed as inhibition of pyocyanin production at 400 uM after 16 to 18 hrs by spectrophotometric assay
Pseudomonas aeruginosa [13] = assay: Decrease in lasI gene expression in Pseudomonas aeruginosa PAO1 at 400 uM by RT-PCR analysis relative to control; type: functional
[14] = test system: Pseudomonas aeruginosa PAO1; assay: Inhibition of Quorum sensing system in Pseudomonas aeruginosa PAO1 assessed as inhibition of swarming motility at 100 uM after 16 hrs
[15] = test system: Chromobacterium violaceum; assay: Antibacterial activity in Chromobacterium violaceum CV026 at 100 ug/well by agar-well diffusion method; type: functional, organism-based
[16] = test system: Chromobacterium violaceum; assay: Inhibition of Quorum sensing system in Chromobacterium violaceum CV026 assessed as inhibition of violacein synthesis at 75 uM after 18 hrs by spectrophotometric assay
[17] = test system: Chromobacterium violaceum; assay: Inhibition of Quorum sensing system in Chromobacterium violaceum CV026 assessed as inhibition of violacein synthesis at 125 uM after 18 hrs by spectrophotometric assay
[18] = test system: Chromobacterium violaceum; assay: Inhibition of Quorum sensing system in Chromobacterium violaceum CV026 assessed as violacein synthesis at 25 and 50 uM after 18 hrs by spectrophotometric assay
[19] = test system: Chromobacterium violaceum; assay: Inhibition of Quorum sensing system in Chromobacterium violaceum CV026 assessed as inhibition of violacein synthesis at >100 uM after 18 hrs by spectrophotometric assay
[20] = test system: Chromobacterium violaceum; assay: Antibacterial activity in Chromobacterium violaceum CV026 at >50 ug/well by agar-well diffusion method; type: functional, organism-based
[21] = test system: Chromobacterium violaceum; assay: Inhibition of Quorum sensing system in Chromobacterium violaceum assessed as inhibition of violacein synthesis; conditions: concentration not given here
[22] = test system: Chromobacterium violaceum; assay: Antibacterial activity in Chromobacterium violaceum CV026 at 0.6 mg/ml by agar-well diffusion method; type: functional, organism-based

Q: Which inhibition [1] does the source give for `COc1c(O)cc2ccc3c(OC)c(O)ccc3c2c1OC` here?
A: inactive

Q: With `COc1cc(/C=C/c2ccc(O)cc2)cc(OC)c1` as the compound, how does the inhibition [1] read?
A: inactive

Q: With `COc1cc2ccc3c(OC)c(O)ccc3c2c(OC)c1OC` as the compound, how does the inhibition [1] read?
A: inactive

Q: How did the inhibition [1] turn out when `COc1ccc(CCc2cc(O)cc(O)c2)cc1OC` was run?
A: inactive

Q: Which inhibition [1] does the source give for `COc1ccc(CCc2cc(OC)c(O)c(OC)c2)cc1O` here?
A: inactive

Q: How did the inhibition [1] turn out when `COc1ccc(CCc2cc(OC)c(OC)c(OC)c2)cc1O` was run?
A: inactive

Q: For `COc1ccc(CCc2cc(OC)c(OC)c(OC)c2)cc1OC`, which inhibition [1] is on record?
A: inactive

Q: How did the inhibition [2] turn out when `Oc1cc(O)cc(/C=C/c2ccc(O)cc2O)c1` [OXYRESVERATROL] was run?
A: Active

Q: What about the inhibition [3] of the same compound?
A: Active

Q: And the inhibition [4]?
A: 86%

Q: And the inhibition (Pseudomonas aeruginosa [5])?
A: Active

Q: And the MIC (Pseudomonas aeruginosa [6])?
A: > 1000 mg/L

Q: And the inhibition (Pseudomonas aeruginosa [7])?
A: Active

Q: What about the inhibition (Pseudomonas aeruginosa [8]) of the same compound?
A: Active

Q: And the Activity (Pseudomonas aeruginosa [9])?
A: inactive

Q: What about the MIC [10] of the same compound?
A: 250 mg/L (≈ 1020 µM)

Q: What about the inhibition [11] of the same compound?
A: Active

Q: What about the inhibition [12] of the same compound?
A: 50.2%

Q: What about the “fold change (FC)” value (Pseudomonas aeruginosa [13]) of the same compound?
A: 3

Q: And the inhibition [14]?
A: Active

Q: `Oc1cc(O)cc(/C=C/c2ccc(O)c(O)c2)c1` [PICEATANNOL] was tested. Which Activity [15] did it give?
A: Active

Q: What about the inhibition [2] of the same compound?
A: Active

Q: And the inhibition [3]?
A: Active

Q: What about the inhibition [4] of the same compound?
A: 73%

Q: What about the inhibition (Pseudomonas aeruginosa [5]) of the same compound?
A: Active

Q: What about the inhibition [16] of the same compound?
A: Active

Q: What about the MIC (Pseudomonas aeruginosa [6]) of the same compound?
A: > 1000 mg/L

Q: What about the inhibition (Pseudomonas aeruginosa [7]) of the same compound?
A: Active

Q: And the inhibition [17]?
A: 46%

Q: What about the inhibition [18] of the same compound?
A: inactive

Q: What about the inhibition (Pseudomonas aeruginosa [8]) of the same compound?
A: Active

Q: And the Activity (Pseudomonas aeruginosa [9])?
A: inactive

Q: What about the MIC [10] of the same compound?
A: 250 mg/L (≈ 1020 µM)

Q: And the inhibition [12]?
A: 37.1%

Q: And the “fold change (FC)” value (Pseudomonas aeruginosa [13])?
A: 5

Q: What about the inhibition [14] of the same compound?
A: Active

Q: `Oc1ccc(/C=C/c2cc(O)cc(O)c2)cc1` [RESVERATROL] was tested. Which inhibition [19] did it give?
A: > 80%

Q: And the inhibition [2]?
A: Active

Q: And the Activity [20]?
A: Active

Q: What about the inhibition [3] of the same compound?
A: Active

Q: And the inhibition (Pseudomonas aeruginosa [5])?
A: Active

Q: And the MIC (Pseudomonas aeruginosa [6])?
A: > 1000 mg/L

Q: What about the inhibition (Pseudomonas aeruginosa [7]) of the same compound?
A: Active

Q: And the inhibition (Pseudomonas aeruginosa [8])?
A: Active

Q: And the Activity (Pseudomonas aeruginosa [9])?
A: inactive

Q: What about the MIC [10] of the same compound?
A: 150 mg/L (≈ 657 µM)

Q: What about the inhibition [11] of the same compound?
A: Active

Q: What about the inhibition [12] of the same compound?
A: 59.3%

Q: And the inhibition [21]?
A: 70%

Q: And the “fold change (FC)” value (Pseudomonas aeruginosa [13])?
A: 2

Q: What about the inhibition [14] of the same compound?
A: Active

Q: GENTAMICIN was tested. Which Activity [22] did it give?
A: Active
